Reference: article PMC9699072 (Molecules, 2022)
“And” between values parts separate entries of the source, which are not always exact repeats. Equal values may be shown once. Where a name gives a salt, the structure may show the parent alone.

Key:
[1] = ORAC-FL (oxygen radical absorbance capacity) assay; type: biochemical; settings: mean ± SEM, n = 3, 2 h, 10 μM compound and Trolox
Excerpt: In the oxygen radical absorbance capacity (ORAC-FL) assay, 2,2′-azobis-(2-methylpropionamidine) dihydrochloride (AAPH) is used as a free peroxyl radical generator, and fluorescein (FL) is used as a fluorescent probe. The method is based on measuring the decrease in the intensity of fluorescence with time, which characterizes the degree of decay of the fluorescent probe under the influence of peroxyl radicals. In the presence of antioxidants, the degree of decay of the fluorescent probe decreases and, accordingly, the fluorescence intensity increases. The results are expressed as TE (Trolox equivalents).
The ORAC assay utilizes a biologically relevant radical source, 2,2′-azobis(2-amidinopropane) dihydrochloride (AAPH)-derived peroxyl radicals. Thus, it is a more physiologically relevant assay than ABTS and FRAP.
The oxygen radical absorbance capacity (ORAC) was determined by the ability of compounds to protect fluorescein (FL) from peroxyl radicals that are generated by AAPH according to the known method with minor variations. The reaction was carried out at 37 °C in black 96-well plates (SPL life sciences), and the final volume of the reaction mixture was 200 µL per well. The fluorescence was recorded by Tecan M1000 PRO microplate reader (Switzerland) at 485 nm excitation and 520 nm emission.
The 0.7 mM fluorescein sodium salt stock solution in PBS pH 7.4 (137 mM sodium chloride, 2.7 mM potassium chloride, and 10 mM phosphate buffer) was prepared and stored at 4–5 °C no longer than one month. An aliquot of the fluorescein stock solution was further diluted with PBS immediately before each assay to yield a 70 nM working solution. The 133 mM AAPH solution in PBS was prepared immediately before use. The test compounds and Trolox standard were dissolved in DMSO to 400 μM. The final concentration was 10 μM for all of the samples.
The blank was composed of 15 μL PBS pH 7.4, 5 μL DMSO (final concentration: 2.5% (v/v)), 120 μL FL, and 60 μL AAPH, and it was included in each assay. PBS pH 7.4 (15 μL), antioxidant (the test compound or Trolox, 5 μL), and FL (120 μL, final concentration: 42 nM) solutions were placed in a black 96-well microplate and were pre-incubated for 15 min at 37 °C. AAPH solution (60 μL, final concentration 40 mM) was then added rapidly using a multichannel pipette. The fluorescence was recorded every minute for 2 h. A Trolox standard curve was also obtained in each assay. All reactions were carried out in quadruplicate, and two to four independent assays were performed for each sample.
Antioxidant curves (fluorescence vs. time) were first normalized to the curve of the blank (without antioxidant) corresponding to the same assay, and the net AUC corresponding to a sample was calculated by subtracting the AUC corresponding to the blank. The ORAC value was obtained by dividing the latter curve by the Trolox curve obtained in the same assay at 10 μM concentrations of compounds and Trolox. Final ORAC values, Trolox equivalents (TE), were expressed as μmol test compounds per μmol Trolox, where the value of TE for Trolox was taken as 1. Data were expressed as means ± SEM.

porcine liver CES = assay: Inhibition of CES (4-nitrophenol acetate hydrolysis); type: biochemical; settings: ± SEM; for IC50: n = 3; for CES % inhibition at 20 μM: n = 3, 10 min incubation 25 °C
Excerpt: Given the available literature data on the ability of pyrazole derivatives to inhibit acetylcholinesterase (AChE) and human carboxylesterase-1 (CES), we performed an investigation of the esterase profile for new compounds 1a–j and 4a–j, including an evaluation of their inhibitory effect on the standard enzymes set: human erythrocyte AChE, equine serum butyrylcholinesterase (BChE), and porcine liver CES (Table 2). The applicability of this set of enzymes was shown by us earlier.
Human erythrocyte acetylcholinesterase (AChE, EC 3.1.1.7), equine serum butyrylcholinesterase (BChE, EC 3.1.1.8), porcine liver carboxylesterase (CES, EC 3.1.1.1), acetylthiocholine iodide (ATCh), butyrylthiocholine iodide (BTCh), 4-nitrophenol acetate (4-NPA), and 5,5′-dithio-bis-(2-nitrobenzoic acid) (DTNB) were purchased from Sigma-Aldrich (Saint Louis, MO, USA).
All the kinetic experiments were performed under standard conditions, according to the protocol of IPAC RAS for a reversible inhibitors study.
Ellman’s colorimetric assay was used to measure AChE and BChE activity in 0.1 M K/Na phosphate buffer at pH 7.5, 25 °C [86]. Final concentrations of reactants were 0.33 mM DTNB, 0.02 unit/mL of AChE or BChE, and 1 mM of substrate (ATCh or BTCh, respectively). Reagent blanks consisted of reaction mixtures without enzyme to assess non-enzymatic hydrolysis of substrates. Porcine liver CES activity was assessed colorimetrically in 0.1 M K/Na phosphate buffer with pH 8.0 at 25 °C, by measuring the absorbance of 4-nitrophenol at 405 nm. Final enzyme and substrate (4-NPA) concentrations were 0.02 unit/mL and 1 mM, respectively. Reagent blanks included all constituents except enzyme.
Test compounds were dissolved in DMSO. Reaction mixtures contained a final DMSO concentration of 2% (v/v). Enzyme inhibition was first assessed at a single concentration of 20 µM for each compound after a 10 min incubation at 25 °C in three separate experiments. Compounds inhibiting the enzyme by more than 30% were then selected for determination of the IC50 (inhibitor concentration resulting in 50% inhibition of control enzyme activity). […] Substrate was then added, and residual enzyme activity relative to an inhibitor-free control was measured using a FLUOStar Optima microplate reader (LabTech, Ortenberg, Germany).

Cl.Nc1c(C(F)(F)C(F)(F)C(F)(F)C(F)(F)F)n[nH]c1O.O [4i, 4-Amino-3-(nonafluorobutyl)-1H-pyrazol-5-ol hydrate hydrochloride]
ORAC-FL TE (Trolox equivalent) [1]: 1.83 ± 0.02 TE | IC50 (porcine liver CES): 22 µM and 21.8 µM

Cc1n[nH]c(O)c1N.Cl [4j, 4-Amino-3-methyl-1H-pyrazol-5-ol hydrochloride]
ORAC-FL TE (Trolox equivalent) [1]: 2.06 ± 0.16 TE | CES % inhibition at 20 μM (porcine liver CES): 4.3 ± 0.9%

O=C1NN=C(C(F)(F)C(F)(F)F)/C1=N/O [1g]
ORAC-FL TE (Trolox equivalent) [1]: 1.87 ± 0.04 TE | CES % inhibition at 20 μM (porcine liver CES): 7.8 ± 1.4%

CC1=NNC(=O)/C1=N\O [1j]
ORAC-FL TE (Trolox equivalent) [1]: 2.85 ± 0.28 TE

Cl.Nc1c(C(F)(F)C(F)(F)F)n[nH]c1O.O [4g, 4-Amino-3-(pentafluoroethyl)-1H-pyrazol-5-ol hydrate hydrochloride]
ORAC-FL TE (Trolox equivalent) [1]: 0.54 ± 0.03 TE | CES % inhibition at 20 μM (porcine liver CES): 6.7 ± 1.2%

Nc1c(C(F)(F)C(F)(F)C(F)(F)C(F)(F)F)nn(-c2ccccc2)c1O [4c, 5-Hydroxy-1-phenyl-3-(nonafluorobuthyl)-1H-pyrazol-4-ammonium hydrochloride]
ORAC-FL TE (Trolox equivalent) [1]: 2.82 ± 0.2 TE | IC50 (porcine liver CES): 10 µM and 10.2 µM

Cl.Nc1c(C(F)(F)C(F)(F)F)nn(-c2ccccc2)c1O.O [4b, 4-Amino-3-(pentafluoroethyl)-1-phenyl-1H-pyrazol-5-ol hydrate hydrochloride]
ORAC-FL TE (Trolox equivalent) [1]: 2.12 ± 0.17 TE | CES % inhibition at 20 μM (porcine liver CES): 16.6 ± 1.4%

Cl.Nc1c(C(F)(F)C(F)(F)C(F)(F)F)n[nH]c1O.O [4h, 4-Amino-3-(heptafluoropropyl)-1H-pyrazol-5-ol hydrate hydrochloride]
ORAC-FL TE (Trolox equivalent) [1]: 0.63 ± 0.04 TE | IC50 (porcine liver CES): 81.8 ± 7.3 µM

O=C1NN=C(C(F)(F)F)/C1=N/O [1e]
ORAC-FL TE (Trolox equivalent) [1]: 0.98 ± 0.03 TE | CES % inhibition at 20 μM (porcine liver CES): 5.9 ± 1.1%

Oc1cc(C(F)(F)F)nn1-c1ccccc1 [CF3-EDA, 3-trifluoromethyl-1-phenylpyrazol-5-ol, reference compound]
ORAC-FL TE (Trolox equivalent) [1]: 3.89 TE and 3.89 ± 0.04 TE | CES % inhibition at 20 μM (porcine liver CES): 7.6 ± 1.2%

Cc1nn(-c2ccccc2)c(O)c1N.Cl.O [4d, 4-Amino-3-methyl-1-phenyl-1H-pyrazol-5-ol hydrochloride hydrate]
ORAC-FL TE (Trolox equivalent) [1]: 4.39 ± 0.04 TE | ORAC-FL TE (Trolox equivalent) ([1]; listed as APH): 4.39 TE | IC50 (porcine liver CES): 98.7 ± 8.8 µM

Cl.Nc1c(C(F)(F)F)nn(-c2ccccc2)c1O [4a, 4-Amino-3-(trifluoromethyl)-1-phenyl-1H-pyrazol-5-ol hydrochloride]
ORAC-FL TE (Trolox equivalent) [1]: 3.49 TE and 3.49 ± 0.16 TE | IC50 (porcine liver CES): 44.9 ± 4 µM

3-methyl-1-phenyl-2-pyrazolin-5-one [EDA, reference compound]
ORAC-FL TE (Trolox equivalent) [1]: 3.71 TE and 3.71 ± 0.06 TE | CES % inhibition at 20 μM (porcine liver CES): 8.4 ± 0.7%

Cl.Nc1c(C(F)(F)F)n[nH]c1O [4e, 4-Amino-3-(trifluoromethyl)-1H-pyrazol-5-ol hydrochloride]
ORAC-FL TE (Trolox equivalent) [1]: 0.90 ± 0.19 TE
